# Literature values in patent US5935604A (Danbiosyst UK Limited, priority 1993, dated 1999).
# Key:
# [1] = nasal
# [2] = tested on: heart
# [3] = man, single doses of 1 mg
# [4] = in vivo
molecule,measurement,setting,value
Gentamicin,absorption with bioadhesive microsphere system,[1],increase the absorption
Cc1ncccc1C1CCCN1C (stereo not shown) [2-methyl nicotine],side-effects on the heart,[2],reduced side-effects on the heart
CN1CCCC1c1cccnc1 (stereo not shown) [nicotine],rate of absorption,[3]; nasal,fast
same,time to maximum concentration,[3]; nasal,≤ 10 min
same,differences for different nasal treatments,[3],No differences could be found
same,potential side effects,[4],sleep disturbances and nightmares can result
same,nicotine peak plasma levels,"regular smokers of 15 or more cigarettes per day, daytime average",about 35 μg/l
same,dose of systemically available nicotine absorbed per cigarette,"regular smokers, average",about 1 mg
same,interval between taking a puff and nicotine arriving in the brain,smoking a cigarette,10 to 20 s
same,plasma nicotine level,"two minutes after the first cigarette, 2 min",about 13 μg/l
